Values of other authors as cited in patent US8367683B2, “Composition and method for treatment of warts” (Medcara, L.L.C., priority 2005, dated 2013).

Tested on: warts
Details: even with patient compliance; applied several times a day over weeks to months

O=C(O)c1ccccc1O [salicylic acid]
share of users who experience success: less than half
